Columns and labels:
K-562 = assay: Inhibition of cells growth by colorimetric (SRB) assay, K-562
Outline: (§1)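 Read-out is sulforhodamine B protein stain (OD 490 nm) after cold TCA fixation, following 48 h continuous exposure to samples spanning 10 to 10^−8 μg/ml.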

LoVo = assay: Inhibition of cells growth by colorimetric (SRB) assay, LoVo
Outline: as §1

LoVo-Dox = assay: Inhibition of cells growth by colorimetric (SRB) assay, LoVo-Dox
Outline: as §1

SK-OV-3 = assay: Inhibition of cells growth by colorimetric (SRB) assay, SK-OV-3
Outline: as §1

SK-BR-3 = assay: Inhibition of cells growth by colorimetric (SRB) assay, SK-BR-3
Excerpt: The finality of these assays is to interrupt the growth of a “in vitro” tumor cell culture by means a continued exhibition of the cells to the sample to be testing.
This form of the assay employs 96 well cell culture microplates of 9 mm diameter (Faircloth, 1988; Mosmann, 1983). Most of the cell lines are obtained from American Type Culture Collection (ATCC) derived from different human cancer types.
Cells are maintained in RPMI 1640 10% FBS, supplemented with 0.1 g/l penicillin and 0.1 g/l streptomycin sulphate and then incubated at 37° C., 5% CO2 and 98% humidity. For the experiments, cells were harvested from subconfluent cultures using trypsin and resuspended in fresh medium before plating.
Cells are seeded in 96 well microtiter plates, at 5×10^3 cells per well in aliquots of 195 μl medium, and they are allowed to attach to the plate surface by growing in drug free medium for 18 hours. Afterward, samples are added in aliquots of 5 μl in a ranging from 10 to 10^−8 μg/ml, dissolved in DMSO/EtOH/PBS (0.5:0.5:99). After 48 hours exposure, the antitumor effect are measured by the SRB methodology: cells are fixed by adding 50 μl of cold 50% (wt/vol) trichloroacetic acid (TCA) and incubating for 60 minutes at 4° C. Plates are washed with deionized water and dried. One hundred μl of SRB solution (0.4% wt/vol in 1% acetic acid) is added to each microtiter well and incubated for 10 minutes at room temperature. Unbound SRB is removed by washing with 1% acetic acid. Plates are air dried and bound stain is solubilized with Tris buffer. Optical densities are read on a automated spectrophotometric plate reader at a single wavelength of 490 nm.
The values for mean +/−SD of data from triplicate wells are calculated. Some parameters for cellular responses can be calculated: GI=growth inhibition, TGI=total growth inhibition (cytostatic effect) and LC=cell killing (cytotoxic effect).

IGROV-1 = assay: Inhibition of cells growth by colorimetric (SRB) assay, IGROV-1
Outline: as §1

SK-MEL-28 = assay: Inhibition of cells growth by colorimetric (SRB) assay, SK-MEL-28
Outline: as §1

DU-145 = assay: Inhibition of cells growth by colorimetric (SRB) assay, DU-145
Outline: as §1

A-549 = assay: Inhibition of cells growth by colorimetric (SRB) assay, A-549
Outline: as §1

PANC-1 = assay: Inhibition of cells growth by colorimetric (SRB) assay, PANC-1
Outline: as §1

IGROV-ET = assay: Inhibition of cells growth by colorimetric (SRB) assay, IGROV-ET
Outline: as §1

HT-29 = assay: Inhibition of cells growth by colorimetric (SRB) assay, HT-29
Outline: as §1

How did the GI50 (K-562; Homo sapiens, K562, 48 h, read-out: GI50 K-562, SRB assay, 48 hours exposure) turn out when `Nc1nccc2c(-c3ccnc(Oc4ccccc4)n3)c3cccnc3n12` [Compound 78] was run?
Its GI50 is 5500 nM.

And the CC50 (K-562; Homo sapiens, K562, 48 h, read-out: LC50 K-562, SRB assay, 48 hours exposure)?
The CC50 was 28200 nM.

And the “TGI K-562” value (K-562; SRB assay, 48 hours exposure)?
Its value is 2.30E−05.

What about the GI50 (LoVo; Homo sapiens, LoVo, 48 h, read-out: GI50 LOVO, SRB assay, 48 hours exposure) of the same compound?
The GI50 was 553 nM.

And the CC50 (LoVo; Homo sapiens, LoVo, 48 h, read-out: LC50 LOVO, SRB assay, 48 hours exposure)?
Its CC50 is 5050 nM.

And the “TGI LOVO” value (LoVo; SRB assay, 48 hours exposure)?
Its value is 1.44E−06.

And the GI50 (LoVo-Dox; Homo sapiens, 48 h, read-out: GI50 LOVO-DOX, SRB assay, 48 hours exposure)?
Its GI50 is 151 nM.

And the CC50 (LoVo-Dox; Homo sapiens, 48 h, read-out: LC50 LOVO-DOX, SRB assay, 48 hours exposure)?
Its CC50 is 18200 nM.

What about the “TGI LOVO-DOX” value (LoVo-Dox; SRB assay, 48 hours exposure) of the same compound?
Its value is 1.86E−06.

What about the GI50 (SK-OV-3; Homo sapiens, SK-OV-3, 48 h, read-out: GI50 SKOV-3, SRB assay, 48 hours exposure) of the same compound?
The GI50 was 784 nM.

And the CC50 (SK-OV-3; Homo sapiens, SK-OV-3, 48 h, read-out: LC50 SKOV-3, SRB assay, 48 hours exposure)?
The CC50 was 28200 nM.

And the “TGI SKOV-3” value (SK-OV-3; SRB assay, 48 hours exposure)?
Its value is 1.87E−06.

And the GI50 (SK-BR-3; Homo sapiens, SK-BR-3, 48 h, read-out: GI50 SK-BR-3, SRB assay, 48 hours exposure)?
Its GI50 is 528 nM.

And the CC50 (SK-BR-3; Homo sapiens, SK-BR-3, 48 h, read-out: LC50 SK-BR-3, SRB assay, 48 hours exposure)?
Its CC50 is 2490 nM.

And the “TGI SK-BR-3” value (SK-BR-3; SRB assay, 48 hours exposure)?
The value was 1.15E−06.

And the GI50 (IGROV-1; Homo sapiens, IGROV-1, 48 h, read-out: GI50 IGROV, SRB assay, 48 hours exposure)?
The GI50 was 621 nM.

What about the CC50 (IGROV-1; Homo sapiens, IGROV-1, 48 h, read-out: LC50 IGROV, SRB assay, 48 hours exposure) of the same compound?
The CC50 was 4740 nM.

And the “TGI IGROV” value (IGROV-1; SRB assay, 48 hours exposure)?
The value was 1.41E−06.

What about the GI50 (SK-MEL-28; Homo sapiens, SK-MEL-28, 48 h, read-out: GI50 MEL-28, SRB assay, 48 hours exposure) of the same compound?
Its GI50 is 717 nM.

What about the CC50 (SK-MEL-28; Homo sapiens, SK-MEL-28, 48 h, read-out: LC50 MEL-28, SRB assay, 48 hours exposure) of the same compound?
Its CC50 is 7050 nM.

And the “TGI MEL-28” value (SK-MEL-28; SRB assay, 48 hours exposure)?
The value was 1.78E−06.

What about the GI50 (DU-145; Homo sapiens, DU-145, 48 h, read-out: GI50 DU-145, SRB assay, 48 hours exposure) of the same compound?
The GI50 was 770 nM.

And the CC50 (DU-145; Homo sapiens, DU-145, 48 h, read-out: LC50 DU-145, SRB assay, 48 hours exposure)?
The CC50 was 28200 nM.

And the “TGI DU-145” value (DU-145; SRB assay, 48 hours exposure)?
The value was 1.87E−06.

What about the GI50 (A-549; Homo sapiens, A549, 48 h, read-out: GI50 A-549, SRB assay, 48 hours exposure) of the same compound?
Its GI50 is 737 nM.

And the CC50 (A-549; Homo sapiens, A549, 48 h, read-out: LC50 A-549, SRB assay, 48 hours exposure)?
Its CC50 is 8010 nM.

What about the “TGI A-549” value (A-549; SRB assay, 48 hours exposure) of the same compound?
Its value is 1.68E−06.

What about the GI50 (PANC-1; Homo sapiens, PANC-1, 48 h, read-out: GI50 PANC-1, SRB assay, 48 hours exposure) of the same compound?
The GI50 was 1340 nM.

What about the CC50 (PANC-1; Homo sapiens, PANC-1, 48 h, read-out: LC50 PANC-1, SRB assay, 48 hours exposure) of the same compound?
The CC50 was 28200 nM.

And the “TGI PANC-1” value (PANC-1; SRB assay, 48 hours exposure)?
Its value is 1.08E−05.

What about the GI50 (IGROV-ET; Homo sapiens, 48 h, read-out: GI50 IGROV-ET, SRB assay, 48 hours exposure) of the same compound?
The GI50 was 1080 nM.

And the CC50 (IGROV-ET; Homo sapiens, 48 h, read-out: LC50 IGROV-ET, SRB assay, 48 hours exposure)?
Its CC50 is 14300 nM.

What about the “TGI IGROV-ET” value (IGROV-ET; SRB assay, 48 hours exposure) of the same compound?
The value was 2.47E−06.

And the GI50 (HT-29; Homo sapiens, HT-29, 48 h, read-out: GI50 HT-29, SRB assay, 48 hours exposure)?
Its GI50 is 1340 nM.

What about the “TGI HT-29” value (HT-29; SRB assay, 48 hours exposure) of the same compound?
The value was 2.82E−05.

From patent US7772241B2, “Variolin derivatives and their use as antitumor agents” (Pharma Mar S.A., priority 2001, dated 2010)
